According to the NIST ThermoML archive (doi:10.1021/acs.jced.8b00358):
± gives the expanded uncertainty stated by the source.

How the values were obtained:
[1] = 83 kPa, Liquid; for speed of sound: Frequency=3 MHz, Single path-length method; for mass density: Vibrating tube method
[2] = molar heat capacity at constant pressure; conditions: 83 kPa, Liquid, DSC

CCCCC(=O)OCC(COC(=O)CCCC)(COC(=O)CCCC)COC(=O)CCCC [pentaerythritol tetrapentanoate]
Conditions | mass density [kg/m3] | molar heat capacity at constant pressure [J/K/mol] | speed of sound [m/s]
[1], 278.15 K | 1030.29 ± 2.8 | – | 1417.7 ± 3.7
[1], 283.15 K | 1026.21 ± 2.8 | – | 1400.3 ± 3.7
[1], 288.15 K | 1022.14 ± 2.7 | – | 1383.2 ± 3.7
[1], 293.15 K | 1018.08 ± 2.7 | – | 1366.2 ± 3.7
[1], 298.15 K | 1014.04 ± 2.7 | – | 1349.3 ± 3.7
[1], 303.15 K | 1010 ± 2.7 | – | 1332.7 ± 3.7
[1], 308.15 K | 1005.97 ± 2.7 | – | 1316.2 ± 3.7
[1], 313.15 K | 1001.94 ± 2.7 | – | 1299.8 ± 3.7
[1], 318.15 K | 997.92 ± 2.7 | – | 1283.6 ± 3.7
[1], 323.15 K | 993.9 ± 2.6 | – | 1267.6 ± 3.7
[1], 328.15 K | 989.89 ± 2.6 | – | 1251.8 ± 3.7
[1], 333.15 K | 985.88 ± 2.6 | – | 1236.1 ± 3.7
[1], 338.15 K | 981.88 ± 2.6 | – | 1220.5 ± 3.7
[1], 343.15 K | 977.88 ± 2.6 | – | 1205.2 ± 3.7
[2], 263.14 K | – | 805.33 ± 34 | –
[2], 264.15 K | – | 806.28 ± 34 | –
[2], 265.15 K | – | 807.22 ± 34 | –
[2], 266.14 K | – | 808.17 ± 34 | –
[2], 267.14 K | – | 809.11 ± 35 | –
[2], 268.15 K | – | 809.58 ± 35 | –
[2], 269.14 K | – | 810.53 ± 35 | –
[2], 270.14 K | – | 811.47 ± 35 | –
[2], 271.15 K | – | 812.42 ± 35 | –
[2], 272.14 K | – | 813.37 ± 35 | –
[2], 273.14 K | – | 814.78 ± 35 | –
[2], 274.14 K | – | 815.73 ± 35 | –
[2], 275.15 K | – | 816.67 ± 34 | –
[2], 276.14 K | – | 817.62 ± 35 | –
[2], 277.14 K | – | 819.04 ± 35 | –
[2], 278.15 K | – | 819.98 ± 35 | –
[2], 279.15 K | – | 820.93 ± 35 | –
[2], 280.15 K | – | 821.87 ± 35 | –
[2], 281.14 K | – | 822.82 ± 35 | –
[2], 282.15 K | – | 823.76 ± 35 | –
[2], 283.15 K | – | 824.71 ± 34 | –
[2], 284.15 K | – | 825.65 ± 35 | –
[2], 285.15 K | – | 827.07 ± 35 | –
[2], 286.14 K | – | 828.02 ± 35 | –
[2], 287.14 K | – | 828.96 ± 35 | –
[2], 288.15 K | – | 829.91 ± 35 | –
[2], 289.15 K | – | 831.32 ± 35 | –
[2], 290.14 K | – | 832.27 ± 35 | –
[2], 291.14 K | – | 833.69 ± 35 | –
[2], 292.14 K | – | 835.11 ± 35 | –
[2], 293.14 K | – | 836.05 ± 35 | –
[2], 294.15 K | – | 837.47 ± 35 | –
[2], 295.14 K | – | 838.89 ± 35 | –
[2], 296.15 K | – | 839.83 ± 35 | –
[2], 297.14 K | – | 841.25 ± 35 | –
[2], 298.14 K | – | 842.67 ± 35 | –
[2], 299.15 K | – | 843.61 ± 35 | –
[2], 300.14 K | – | 845.03 ± 35 | –
[2], 301.15 K | – | 846.45 ± 35 | –
[2], 302.14 K | – | 847.39 ± 35 | –
[2], 303.15 K | – | 848.81 ± 35 | –
[2], 304.15 K | – | 850.23 ± 35 | –
[2], 305.14 K | – | 851.17 ± 35 | –
[2], 306.15 K | – | 852.12 ± 35 | –
[2], 307.15 K | – | 853.54 ± 35 | –
[2], 308.14 K | – | 854.48 ± 35 | –
[2], 309.14 K | – | 855.9 ± 35 | –
[2], 310.15 K | – | 857.32 ± 35 | –
[2], 311.15 K | – | 858.26 ± 35 | –
[2], 312.14 K | – | 859.68 ± 35 | –
[2], 313.15 K | – | 860.63 ± 35 | –
[2], 314.14 K | – | 862.04 ± 35 | –
[2], 315.15 K | – | 863.46 ± 35 | –
[2], 316.14 K | – | 864.41 ± 35 | –
[2], 317.15 K | – | 865.83 ± 35 | –
[2], 318.15 K | – | 866.77 ± 35 | –
[2], 319.14 K | – | 868.19 ± 35 | –
[2], 320.15 K | – | 869.61 ± 35 | –
[2], 321.15 K | – | 870.55 ± 35 | –
[2], 322.14 K | – | 871.97 ± 35 | –
[2], 323.14 K | – | 873.39 ± 35 | –
[2], 324.15 K | – | 874.33 ± 35 | –
[2], 325.14 K | – | 875.75 ± 35 | –
[2], 326.15 K | – | 876.7 ± 35 | –
[2], 327.15 K | – | 878.11 ± 35 | –
[2], 328.15 K | – | 879.53 ± 35 | –
[2], 329.14 K | – | 880.48 ± 36 | –
[2], 330.15 K | – | 881.89 ± 36 | –
[2], 331.15 K | – | 883.31 ± 36 | –
[2], 332.14 K | – | 884.26 ± 36 | –
[2], 333.14 K | – | 885.68 ± 36 | –
[2], 334.15 K | – | 887.09 ± 36 | –
[2], 335.14 K | – | 888.51 ± 36 | –
[2], 336.14 K | – | 889.93 ± 36 | –
[2], 337.14 K | – | 891.35 ± 36 | –
[2], 338.14 K | – | 892.29 ± 36 | –
[2], 339.15 K | – | 893.71 ± 36 | –
[2], 340.14 K | – | 895.13 ± 36 | –
[2], 341.14 K | – | 896.07 ± 36 | –
[2], 342.15 K | – | 897.02 ± 36 | –
[2], 343.14 K | – | 898.44 ± 36 | –
[2], 344.15 K | – | 899.38 ± 36 | –
[2], 345.15 K | – | 900.8 ± 36 | –
[2], 346.15 K | – | 902.22 ± 36 | –
[2], 347.14 K | – | 903.16 ± 36 | –
[2], 348.14 K | – | 904.58 ± 36 | –
[2], 349.15 K | – | 906 ± 36 | –
[2], 350.14 K | – | 907.42 ± 36 | –
[2], 351.14 K | – | 908.36 ± 36 | –
[2], 352.14 K | – | 909.78 ± 36 | –
[2], 353.14 K | – | 911.2 ± 37 | –
[2], 354.15 K | – | 912.61 ± 37 | –
[2], 355.14 K | – | 913.56 ± 37 | –
[2], 356.15 K | – | 914.98 ± 37 | –
[2], 357.15 K | – | 916.39 ± 37 | –
[2], 358.14 K | – | 917.81 ± 37 | –
[2], 359.15 K | – | 918.76 ± 37 | –
[2], 360.15 K | – | 920.18 ± 37 | –
[2], 361.14 K | – | 921.59 ± 37 | –
[2], 362.15 K | – | 922.54 ± 37 | –
[2], 363.15 K | – | 923.96 ± 37 | –
[2], 364.14 K | – | 925.37 ± 37 | –
[2], 365.14 K | – | 926.79 ± 37 | –
[2], 366.15 K | – | 927.74 ± 37 | –
[2], 367.14 K | – | 929.16 ± 37 | –
[2], 368.14 K | – | 930.57 ± 37 | –
[2], 369.14 K | – | 931.99 ± 37 | –
[2], 370.14 K | – | 933.41 ± 37 | –
[2], 371.15 K | – | 934.35 ± 37 | –
[2], 372.14 K | – | 935.77 ± 37 | –
[2], 373.14 K | – | 937.19 ± 37 | –
[2], 374.15 K | – | 938.61 ± 37 | –
[2], 375.14 K | – | 939.55 ± 38 | –
[2], 376.14 K | – | 940.97 ± 38 | –
[2], 377.14 K | – | 942.39 ± 38 | –
[2], 378.15 K | – | 943.81 ± 38 | –
[2], 379.15 K | – | 944.75 ± 38 | –
[2], 380.14 K | – | 946.17 ± 38 | –
[2], 381.15 K | – | 947.59 ± 38 | –
[2], 382.14 K | – | 949.01 ± 38 | –
[2], 383.14 K | – | 950.42 ± 38 | –
[2], 384.14 K | – | 951.84 ± 38 | –
[2], 385.15 K | – | 952.79 ± 38 | –
[2], 386.14 K | – | 954.2 ± 38 | –
[2], 387.14 K | – | 955.62 ± 38 | –
[2], 388.15 K | – | 957.04 ± 38 | –
[2], 389.15 K | – | 957.98 ± 38 | –
[2], 390.14 K | – | 959.4 ± 38 | –
[2], 391.15 K | – | 960.82 ± 38 | –
[2], 392.15 K | – | 961.77 ± 38 | –
[2], 393.15 K | – | 963.18 ± 39 | –
[2], 394.15 K | – | 964.13 ± 39 | –
[2], 395.15 K | – | 965.55 ± 39 | –
[2], 396.14 K | – | 966.96 ± 39 | –
[2], 397.14 K | – | 968.38 ± 39 | –
[2], 398.14 K | – | 969.8 ± 39 | –
[2], 399.14 K | – | 971.22 ± 39 | –
[2], 400.15 K | – | 972.16 ± 39 | –
[2], 401.14 K | – | 973.58 ± 39 | –
[2], 402.14 K | – | 975 ± 39 | –
[2], 403.15 K | – | 975.94 ± 39 | –
[2], 404.15 K | – | 977.36 ± 39 | –
[2], 405.14 K | – | 978.78 ± 39 | –
[2], 406.15 K | – | 979.72 ± 39 | –
[2], 407.14 K | – | 981.14 ± 39 | –
[2], 408.14 K | – | 982.56 ± 39 | –
[2], 409.14 K | – | 983.51 ± 39 | –
[2], 410.15 K | – | 984.92 ± 39 | –
[2], 411.15 K | – | 986.34 ± 39 | –
[2], 412.14 K | – | 987.76 ± 40 | –
[2], 413.15 K | – | 988.7 ± 40 | –
[2], 414.15 K | – | 990.12 ± 40 | –
[2], 415.15 K | – | 991.54 ± 40 | –
[2], 416.14 K | – | 992.96 ± 40 | –
[2], 417.15 K | – | 993.9 ± 40 | –
[2], 418.15 K | – | 995.32 ± 40 | –
[2], 419.15 K | – | 996.27 ± 40 | –
[2], 420.14 K | – | 997.68 ± 40 | –
[2], 421.15 K | – | 999.1 ± 40 | –
[2], 422.15 K | – | 1000 ± 40 | –
[2], 423.15 K | – | 1001.5 ± 40 | –
[2], 424.14 K | – | 1002.9 ± 40 | –
[2], 425.15 K | – | 1004.3 ± 40 | –
[2], 426.15 K | – | 1005.2 ± 41 | –
[2], 427.14 K | – | 1006.7 ± 41 | –
[2], 428.15 K | – | 1008.1 ± 41 | –
[2], 429.15 K | – | 1009 ± 41 | –
[2], 430.14 K | – | 1010.4 ± 41 | –
[2], 431.15 K | – | 1011.4 ± 41 | –
[2], 432.15 K | – | 1012.8 ± 41 | –
